Publication PMC6522510 (Nature Communications, 2019)
Where two headings read alike, the source gives them in different places.

Legend:
M07e [1] = assay: Secondary dose-response HTS, Cell Titer Glo; format: cell-based, human; details: secondary high-throughput screen; for EC50: read-out: average effective concentration, M07e
MOLM-13 [2] = assay: Secondary dose-response HTS, Cell Titer Glo; format: cell-based, human; details: secondary high-throughput screen, MOLM-13; for EC50: read-out: average effective concentration, MOLM-13
CHRF288-11 [3] = assay: Secondary dose-response HTS, Cell Titer Glo; format: cell-based, human; details: secondary high-throughput screen, CHRF288-11; for EC50: Homo sapiens, HTS, read-out: average effective concentration, CHRF288-11
CMK [4] = assay: Secondary dose-response HTS, Cell Titer Glo; format: cell-based, human; details: secondary high-throughput screen, CMK; for EC50: read-out: average effective concentration, CMK
MV4-11 [5] = assay: Secondary dose-response HTS, Cell Titer Glo; format: cell-based, human; details: secondary high-throughput screen, MV4-11; for EC50: read-out: average effective concentration, MV4-11
U937 [6] = assay: Secondary dose-response HTS, Cell Titer Glo; format: cell-based, human; details: secondary high-throughput screen, U937; for EC50: Homo sapiens, U-937, read-out: average effective concentration, U937
ML2 = assay: Secondary dose-response HTS, Cell Titer Glo; format: cell-based, human; details: secondary high-throughput screen, ML-2; for EC50: Homo sapiens, read-out: average effective concentration, ML-2
M07e [7] = assay: cells; design: species or system AML cell lines (8); Secondary HTS, 10-point dose-response in triplicate, Cell Titer Glo viability, four-parameter fit EC50; details: M-07e, 72 h, read-out: M07e
CMK [8] = assay: cells; design: species or system AML cell lines (8); Secondary HTS, 10-point dose-response in triplicate, Cell Titer Glo viability, four-parameter fit EC50; details: Homo sapiens, CMK, 72 h, read-out: CMK
CMS = assay: Secondary dose-response HTS, Cell Titer Glo; format: cell-based, human; details: Homo sapiens, HTS, read-out: average effective concentration, CMS
MV4-11 [9] = assay: cells; design: species or system AML cell lines (8); Secondary HTS, 10-point dose-response in triplicate, Cell Titer Glo viability, four-parameter fit EC50; details: Homo sapiens, MV4-11, 72 h, read-out: MV4-11
MOLM-13 [10] = assay: cells; design: species or system AML cell lines (8); Secondary HTS, 10-point dose-response in triplicate, Cell Titer Glo viability, four-parameter fit EC50; details: Homo sapiens, MOLM-13, 72 h, read-out: MOLM-13
CHRF288-11 [11] = assay: cells; design: species or system AML cell lines (8); Secondary HTS, 10-point dose-response in triplicate, Cell Titer Glo viability, four-parameter fit EC50; details: 72 h, read-out: CHRF288-11
U937 [12] = assay: cells; design: species or system AML cell lines (8); Secondary HTS, 10-point dose-response in triplicate, Cell Titer Glo viability, four-parameter fit EC50; details: Homo sapiens, U-937, 72 h, read-out: U937
[13] = secondary high-throughput screen, CMS

Row | SMILES | average effective concentration, M07e (M07e [1]; M07e) | average effective concentration, MOLM-13 (MOLM-13 [2]) | average effective concentration, CHRF288-11 (CHRF288-11 [3]) | average effective concentration, CMK (CMK [4]) | average effective concentration, MV4-11 (MV4-11 [5]) | average effective concentration, U937 (U937 [6]) | average effective concentration, ML-2 (ML2) | other results
1 | CCOC(=O)C1=C(C)NC2=C(C(=O)CC(C)(C)C2)C1c1ccc(-c2ccccc2)cc1 (centres unmarked) [ITD-1] | Inactive | Inactive | Inactive | Inactive | Inactive | Inactive | Inactive | 
2 | Cn1cc(C(=O)Cc2ccccc2)cc1/C=C/C(=O)NO [MC 1293] |  |  | Inactive |  | Inactive | Inactive |  | EC50 (M07e [1]; M07e): 0.45 µM; EC50 (CMK [4]): 8.7 µM
3 | OC(c1cc(C(F)(F)F)nc2c(C(F)(F)F)cccc12)C1CCCCN1 (centres unmarked) [MEFLOQUINE] |  |  |  |  |  |  |  | EC50 (M07e [7]): > 10 µM; EC50 (CMK [8]): > 10 µM; EC50 (CHRF288-11 [3]): > 10 µM; EC50 (CMS; [13]): > 10 µM; EC50 (MV4-11 [9]): > 10 µM; EC50 (U937 [6]): > 10 µM; EC50 (ML2): > 10 µM; EC50 (MOLM-13 [10]): > 10 µM
4 | CCNC(=O)c1cc2c(-c3cc(OCCN4CCCC4)c(Cl)cc3Cl)nc(N)nc2s1 [NVP-BEP800] |  |  |  |  |  |  |  | average effective concentration, M07e (M07e [1]; […]): Inactive
5 | COc1ccc(Cn2ccc3ccc(C(=O)NO)cc32)cc1 [PCI 34051] |  | Inactive | Inactive | Inactive | Inactive | Inactive | Inactive | average effective concentration, M07e (M07e [1]; […]): Inactive
6 | COc1ccc(-c2cc3c(C)nc(N)nc3n([C@H]3CC[C@H](OCCO)CC3)c2=O)cn1 [PF-04691502] | Inactive |  |  |  |  |  |  | 
7 | COc1cc(F)c(F)c(Nc2ccc(I)cc2F)c1NS(=O)(=O)C1(C[C@H](O)CO)CC1 [REFAMETINIB] |  |  |  |  |  |  |  | EC50 (MOLM-13 [2]; Homo sapiens): 1.2 µM; EC50 (M07e [7]): > 10 µM; EC50 (CMS; [13]): > 10 µM; EC50 (MV4-11 [9]): > 10 µM; EC50 (CHRF288-11 [11]): > 10 µM; EC50 (CMK [4]; Homo sapiens): 8.6 µM; EC50 (U937 [12]): > 10 µM; EC50 (ML2): 0.001 µM
8 | CC(=O)Nc1ccc(NC(=S)NC(=O)c2ccc(C(C)(C)C)cc2)cc1 [TENOVIN-1] | Inactive | Inactive | Inactive | Inactive | Inactive |  | Inactive | 
9 | O=c1[nH]c2sccc2c2ccccc12 [TIQ-A] |  |  | Inactive | Inactive |  | Inactive | Inactive | EC50 (M07e [1]; M07e): 7 µM; EC50 (MOLM-13 [2]): 4.2 µM; EC50 (MV4-11 [5]): 3.5 µM
10 | N#Cc1ccc(COC[C@H]2O[C@@H](n3c(NCc4ccc(Cl)c(Cl)c4)nc4c(N)ncnc43)[C@H](O)[C@@H]2O)cc1 [VER-155008] | Inactive | Inactive | Inactive | Inactive | Inactive | Inactive | Inactive | 
11 | CCC1=C[C@@H]2CN(C1)Cc1c([nH]c3ccccc13)[C@@](C(=O)OC)(c1cc3c(cc1OC)N(C)[C@H]1[C@@](O)(C(=O)OC)[C@H](OC(C)=O)[C@]4(CC)C=CCN5CC[C@]31[C@@H]54)C2 [VINORELBINE] |  |  |  |  |  |  |  | EC50 (MOLM-13 [2]; Homo sapiens): 0.029 µM; EC50 (M07e [7]): > 10 µM; EC50 (CMK [8]): > 10 µM; EC50 (CHRF288-11 [3]): 2.1 µM; EC50 (CMS): 0.24 µM; EC50 (MV4-11 [5]; Homo sapiens): 0.032 µM; EC50 (U937 [6]): 0.032 µM; EC50 (ML2): 0.04 µM
12 | CCOc1cc(N2CCC(O)CC2)ccc1Nc1ncc2c(n1)N(C)c1ccccc1C(=O)N2C [XMD 8-92] | Inactive |  | Inactive |  |  |  | Inactive | 
